# Laboratory results reported in patent US10137122B2, “Kinase inhibitors and methods of use thereof” (priority 2012, dated 2018).
# pEC50, pIC50: −log10 of the molar value. Like-named read-outs stand apart in the source and are kept apart here.
# Legend:
# [1] = system: phospho-Tau (Ser199) in SH-SY5Y cells; test: Tau phosphorylation assay (phospho-Tau Ser199 ELISA); assay type: cell-based, human; conditions: Homo sapiens
# Method: Tau Phosphorylation and Total Tau Assay
# SH-SY5Y cells were maintained in DMEM supplemented with 10% heat-inactivated FBS and 1% penicillin-streptomycin (Invitrogen) unless otherwise stated. ELISA kits for phospho-Tau (Ser199) and total Tau detection were purchased from Invitrogen (KHB0041, and KHB7041 respectively). Briefly, SH-SY5Y cells were seeded at 50,000 cells/200 μL/well in 96 well plates and after overnight incubation, treated with various doses of chemical compounds at 0.2 μL/well. The next day cells were washed with PBS twice before being lysed in 100 μL Lysis buffer/well. 50 μL of cell lysate of each sample was transferred to an ELISA vial coated with the capture antibody, and the mixture was incubated at room temperature for 2 hours, before the supernatant was aspired, and each vial washed four times. 100 μL of detection antibody was then added to each well, incubated for 1 hour, and then washed four times. […] Data were scaled using the positive and neutral controls and fitted for IC50.
# A standard protocol using an immunoassay kit to quantify total Tau protein and phospho-Tau (Ser199) protein in SH-SY5Y human neuroblastoma cells was employed. Human Tau (Total) ELISA kit (#KHB0041) and human phosphor-Tau (Ser199) ELISA kit were purchased from Invitrogen (#KHB7041)
# 50,000 cells were seeded in 200 μl per well in cell culture media (250,000 cells/ml). Cells were incubated overnight @37° C. Cells were induced with appropriate doses of inhibitors and incubated for approximately 24 hrs @37° C. Cell lysates were harvested by washing cells once with cold PBS and adding 100 μl cold lysis buffer and pipette up and down vigorously. Lysate was transferred to 96 well PCR plate and centrifuged at 4,000 rpm for 20 minutes at 4° C.
# Well strips were warmed and inserted into the frame. 100μ of standard diluent buffer were loaded into ZERO wells, and 100 ul of each standard concentrations (both total Tau and pTau) were loaded into wells in duplicate. Samples were loaded to each well that would be analyzed for total Tau, 85 μl standard diluent buffer and 15 μl cell lysate were added. To each well that will be analyzed for pTau (Ser199) 50 μl standard diluent buffer+50 μl cell lysate were added. Plates were tapped gently on the side to mix. Certain wells were left empty for chromogen blank. Plates were covered and incubated for 2 hours at room temperature. Wells were aspirated 4 times (400 μl diluted wash buffer, left for 30 seconds, aspirated all wells; alternatively used automated plate washer and programmed in a 30 second hold between each cycle). 100 μl of detection antibody solution were added to each well except chromogen blanks. Anti-total Tau was added to wells being analyzed for total Tau, anti-pTau (Ser199) was added to wells being analyzed for pTau (Ser199), and plates were tapped gently on the side to mix. Plates were covered and incubated for 1 hour at room temperature, then wells were aspirated and washed 4 times as described above. 100 μl of anti-rabbit IgG HRP working solution (prepared ahead) were added to each well except chromogen blanks, and plates were covered and incubated for 30 minutes at room temperature, then wells were aspirated and washed 4 times as described above. 100 μl of stabilized chromogen were added to each well (the liquid turned blue). Plates were incubates for 30 minutes at room temperature in the dark, then 100 μl of stop solution were added to each well, and plates were tapped gently on the side to mix. Absorbance of each well was read at 450 nm (within 2 hours of adding stop solution).
# [2] = system: β-catenin nuclear translocation in U2-OS cells; test: β-Catenin nuclear localization assay; assay type: cell-based; conditions: Homo sapiens, U2OS, read-out: beta-Catenin translocation EC50
# Method: β-Catenin Nuclear Localization Assay
# U2-OS cells stably expressing two complimentary β-galactosidase fragments (one part on β-Catenin and the other constitutively expressed in the cell nucleus) were maintained in DMEM F12 supplemented with 10% FBS. When β-catenin translocates to the nucleus, the complimentary fragments form a complete β-galactosidase, the amount of which is then quantified by β-galactosidase activity (DiscoveRx). Cells were seeded in a 384-well CulturPlate (Perkin Elmer, Boston, Mass.) with 10,000 per well in 20 μL DMEM F12 containing 10% FCS, 100 U/ml penicillin and 100 μg/mL streptomycin. After overnight incubation at 37° C., cells were stimulated with 100 nL test compound/well and then returned to the incubator for 6 h. Cells were disrupted using 12 μL substrate-containing lysis buffer from the PathHunter Detection Kit in the formulation specified by the supplier (DiscoveRx). Plates were incubated in the dark for 1 h at room temperature before measurement of β-galactosidase activity (luminescence) on an EnVision plate reader (PerkinElmer, Waltham, Mass.).
# panel of 311 kinases = test: Single point kinome-wide profile (Carna Biosciences); assay type: biochemical; conditions: for number of kinases inhibited greater than 50% at 10 μM: panel of 311 kinases
# Method: (§1) Briefly, a selection of compounds was screened against a panel of kinases at a single concentration of 10 μM. […] This was completed utilizing one of two assays depending on the kinase being examined.
# (§2) Test compounds were dissolved in and diluted with dimethylsulfoxide (DMSO) to generate a 100× sample solution. These were then diluted to 4× sample solutions in assay buffer to make the final test compound solutions. Reference compounds for assay control were prepared similarly.
# (§3) A solution of IMAP binding reagent (IMAP Screening Express kit; Molecular Devices) (60 μL) was added to each well and incubated for 30 minutes.
# (§4) A solution of termination buffer (QuickScout Screening assist MSA; Carna Biosciences) (60 μL) was added to each well. The entire reaction mixture was then applied to a LabChip3000 system (Caliper Life Science) and the product and substrate peptide peaks were separated and quantified.
# BRAF = BRAF (Homo sapiens (Human), UniProt P15056); test: Single point inhibition at 10 μM (Carna), BRAF; assay type: biochemical
# Method: as §1, §2, §3, §4
# CDK2/CycA2 = CDK2/CycA2 (Homo sapiens (Human), UniProt P24941); test: Single point inhibition at 10 μM (Carna), CDK2/CycA2; assay type: biochemical
# Method: as §1, §2, §3, §4
# CDK2/CycE1 = CDK2/CycE1 (Homo sapiens (Human), UniProt P24941); test: Single point inhibition at 10 μM (Carna), CDK2/CycE1; assay type: biochemical
# Method: as §1, §2, §3, §4
# CDK4 = CDK4 (Homo sapiens (Human), UniProt P11802); test: Single point inhibition at 10 μM (Carna), CDK4; assay type: biochemical
# Method: as §1, §2, §3, §4
# CDK5 = CDK5 (Homo sapiens (Human), UniProt Q00535); test: Single point inhibition at 10 μM (Carna), CDK5; assay type: biochemical
# Method: (§5) Single Point Inhibitory Analysis of Selected Compounds (Carna Biosciences)
# as §1, §2, §3, §4
# CK1g1 = CK1g1 (Homo sapiens (Human), UniProt Q9HCP0); test: Single point inhibition at 10 μM (Carna), CK1g1; assay type: biochemical
# Method: as §1, §2, §3, §4
# CK1g3 = CK1g3 (Homo sapiens (Human), UniProt Q9Y6M4); test: Single point inhibition at 10 μM (Carna), CK1g3; assay type: biochemical
# Method: as §1, §2, §3, §4
# DYKR1B = DYKR1B (Homo sapiens (Human), UniProt Q9Y463); test: Single point inhibition at 10 μM (Carna), DYKR1B; assay type: biochemical
# Method: as §1, §2, §3, §4
# Erk5 = Erk5 (Homo sapiens (Human), UniProt Q13164); test: Single point inhibition at 10 μM (Carna), Erk5; assay type: biochemical
# Method: as §5, §1, §2, §3, §4
# HIPK4 = HIPK4 (Homo sapiens (Human), UniProt Q8NE63); test: Single point inhibition at 10 μM (Carna), HIPK4; assay type: biochemical
# Method: as §5, §1, §2, §3, §4
# MAP2K6 = MAP2K6 (Homo sapiens (Human), UniProt P52564); test: Single point inhibition at 10 μM (Carna), MAP2K6; assay type: biochemical
# Method: as §5, §1, §2, §3, §4
# MELK = MELK (Homo sapiens (Human), UniProt Q14680); test: Single point inhibition at 10 μM (Carna), MELK; assay type: biochemical
# Method: as §5, §1, §2, §3, §4
# MLK3 = MLK3 (Homo sapiens (Human), UniProt Q16584); test: Single point inhibition at 10 μM (Carna), MLK3; assay type: biochemical
# Method: as §5, §1, §2, §3, §4
# PKR = PKR (Homo sapiens (Human), UniProt P19525); test: Single point inhibition at 10 μM (Carna), PKR; assay type: biochemical
# Method: as §5, §1, §2, §3, §4
# PLK1 = PLK1 (Homo sapiens (Human), UniProt P53350); test: Single point inhibition at 10 μM (Carna), PLK1; assay type: biochemical
# Method: as §5, §1, §2, §3, §4
# RSK3 = RSK3 (Homo sapiens (Human), UniProt Q15349); test: Single point inhibition at 10 μM (Carna), RSK3; assay type: biochemical
# Method: as §5, §1, §2, §3, §4
# CDK2 = CDK2 (Homo sapiens (Human), UniProt P24941); test: Single point inhibition at 10 μM (kinase screen), CDK2; assay type: biochemical
# Method: as §1, §2, §3, §4
# CLK1 = CLK1 (Homo sapiens (Human), UniProt P49759); test: Single point inhibition at 10 μM (kinase screen), CLK1; assay type: biochemical
# Method: as §1, §2, §3, §4
# [3] = M (mouse)
# [4] = system: TCF/LEF reporter in HEK293-pBARL cells; test: cells; conditions: Homo sapiens
# Method: (§6) HEK293-pBARL cells were derived from HEK293 cells and they stably expressed a firefly-luciferase reporter gene driven by a promoter containing 12 copies of TCF/LEF binding sequences. These cells were maintained in DMEM and supplemented with 10% FBS and 1% penicillin-streptomycin (Invitrogen). Reporter gene assays were conducted in anti-biotic free media. […] These cells also contained a renilla-luciferase reporter gene driven by the ubiquitous EF1α promoter as a control. HEK293-pBarl reporter cell lines were seeded into 384-well culture plates (Corning) at 6000 cells/well. 24 hours after plating, cells were treated overnight with relevant compounds and assayed using DualGlo assay kit (Promega). Luminescent intensities were read by EnVision (PerkinElmer, Waltham, Mass.). Firefly luciferase intensity is normalized by renilla luciferase intensity.
# (§7) Cells were cultured in 384 well plates to appropriate density (40 μl total plating volume). 24 hours after plating, cells were treated with 100 nl compounds. 24 hours after incubation with compounds (48 hours after plating), assay reagents were prepared by mixing Luciferase Assay solution with Luciferase substrate and Stop & Glo solution to Stop & Glo substrate (extra reagents can be aliquoted and frozen for future use and are stable for at least one freeze/thaw cycle). […] The plate was spun down and 10 minutes were allowed for signal stabilization. Luciferase signal on the Perkin Elmer EnVision using the following parameters: Distance between plate & detector (mm)=0.2; Measurement time(s)=0.1; Glow (CT2) correction factor=0. Once the initial data is secure, a volume of Stop & Glo was added equal to each well equal to the volume of Luciferase reagent added above (If 10 μl Luciferase Reagent was added, 10 μl Stop & Glo was also added). The plate was spun down and 10 minutes were allowed for signal stabilization. The plate was read on the EnVision using the same parameters detailed above.
# GSK3α [5] = target: T1, GSK3α (Homo sapiens (Human), UniProt P49840); test: biochemical; conditions: read-out: % Inhibition at 10 μM, GSK3α
# Method: as §1, §2, §3, §4
# GSK3β [6] = target: T2, GSK3β (Homo sapiens (Human), UniProt P49841); test: biochemical; conditions: read-out: % Inhibition at 10 μM, GSK3β
# Method: as §1, §2, §3, §4
# CDK9 = CDK9 (Homo sapiens (Human), UniProt P50750); test: Single point inhibition at 10 μM (Carna), CDK9; assay type: biochemical
# Method: as §5, §1, §2, §3, §4
# LIMK1 = LIMK1 (Homo sapiens (Human), UniProt P53667); test: Single point inhibition at 10 μM (Carna), LIMK1; assay type: biochemical
# Method: as §1, §2, §3, §4
# PBS stability = assay type: physicochemical; conditions: 48 hours of incubation, acetonitrile recovery
# Method: Stability was determined in the presence of PBS pH 7.4 with 0.1% DMSO. Each compound was prepared in duplicate on six separate plates and allowed to equilibrate at room temperature with a 250 rpm orbital shake for 48 hours. One plate was removed at each time point (0, 2, 4, 8, 24, and 48 hours). […] Additionally, to the remaining material at each time point, acetonitrile was added to force dissolution of compound (to test for recovery of compound). An aliquot of this was also analyzed by UPLC-MS.
# GSH stability = assay type: in vitro ADME; conditions: glutathione, 48 hours
# Method: Stability was determined in the presence of PBS pH […] and 50 μM glutathione with 0.1% DMSO. Each compound was prepared in duplicate on six separate plates and allowed to equilibrate at room temperature with a 250 rpm orbital shake for 48 hours. One plate was removed at each time point (0, 2, 4, 8, 24, and 48 hours). […] Additionally, to the remaining material at each time point, acetonitrile was added to force dissolution of compound (to test for recovery of compound). An aliquot of this was also analyzed by UPLC-MS.
# [7] = system: TCF/LEF reporter in HEK293-pBARL cells; conditions: read-out: TCF/LEF EC50
# Method: as §6, §7
# [8] = system: amphetamine-induced hyperactivity; test: Amphetamine-induced hyperactivity (AIH) in vivo; conditions: mice, intracerebroventricular, vs vehicle
# [9] = system: human iPSC-NPCs with TCF/LEF-luciferase reporter; test: Neurogenesis assay; assay type: cell-based; conditions: 24-h treatment
# Text: See, e.g., Zhao et al., J Biomol Screen. 2012 October; 17(9):1252-63.
# GSK3β [10] = target: T2, GSK3β
# Method: Human GSK3β as a GST fusion expressed in baculoviral system was purchased from BPS Bioscience (San Diego, Calif.). […] Reactions were incubated at room temperature for 60 minutes. 2.5 μL/well of ADP-Glo (Promega, V9103) was added with BioRAPTR, and incubated at room temperature for 40 minutes followed by addition of 5 μL/well of ADP-Glo detection reagent (Promega, V9103) with Combi nL (Thermo, Waltham, Mass.) and incubation at room temperature for 30 minutes. The plates were read on a ViewLux (PerkinElmer, Waltham, Mass.) for luminescence. Data were scaled using the positive and neutral controls and fitted for IC50 as described below.
# ADP Glo Assay Protocol (10 μM ATP) in 384-Well Format
# 100 nL/well compounds were pinned. […] Incubated at room temperature for 60 minutes. Added 20 μL/well of ADP-glo (Promega, V9103) with Combi, and incubated at room temperature for 40 minutes. Added 40 μL/well of ADP-glo (Promega, V9103) with Combi, incubated at room temperature for 30 minutes. Read on Envision for luminescence.
# GSK3α [11] = target: T1, GSK3α
# Method: GSK3β Microfluidic Mobility-Shift Assay
# (§8) Reactions were terminated by the addition of 10 mM EDTA. Substrate and product were separated electrophoretically and fluorescence intensity of the substrate and product was determined by Labchip EZ Reader II (Caliper Life Sciences, MA). The kinase activity was measured as percent conversion. The reactions were performed in duplicate for each sample. […] The results were analyzed by Genedata Assay Analyzer. The percent inhibition was plotted against the compound concentration and the IC50 value was determined from the logistic dose-response curve fitting.
# GSK3β [12] = target: T2, GSK3β; remark: listed apart in the source
# Method: GSK3β Microfluidic Mobility-Shift Assay
# as §8
# GSK3 = conditions: read-out: GSK3 IC50 of lithium; cited from earlier work
# T2 sequence (P49841 whole entry): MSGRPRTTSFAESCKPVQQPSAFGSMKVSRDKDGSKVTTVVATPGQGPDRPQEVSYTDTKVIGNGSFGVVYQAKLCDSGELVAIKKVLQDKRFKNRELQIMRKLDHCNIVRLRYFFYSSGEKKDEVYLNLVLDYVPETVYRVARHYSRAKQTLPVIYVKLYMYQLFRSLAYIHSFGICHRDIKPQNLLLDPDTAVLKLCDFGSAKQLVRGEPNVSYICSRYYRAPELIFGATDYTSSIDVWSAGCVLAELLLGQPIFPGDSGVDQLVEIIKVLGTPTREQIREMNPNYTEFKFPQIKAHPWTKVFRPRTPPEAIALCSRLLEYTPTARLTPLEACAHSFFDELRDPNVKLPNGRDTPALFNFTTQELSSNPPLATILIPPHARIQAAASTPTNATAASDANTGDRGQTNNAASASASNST
# T1 sequence (P49840 whole entry): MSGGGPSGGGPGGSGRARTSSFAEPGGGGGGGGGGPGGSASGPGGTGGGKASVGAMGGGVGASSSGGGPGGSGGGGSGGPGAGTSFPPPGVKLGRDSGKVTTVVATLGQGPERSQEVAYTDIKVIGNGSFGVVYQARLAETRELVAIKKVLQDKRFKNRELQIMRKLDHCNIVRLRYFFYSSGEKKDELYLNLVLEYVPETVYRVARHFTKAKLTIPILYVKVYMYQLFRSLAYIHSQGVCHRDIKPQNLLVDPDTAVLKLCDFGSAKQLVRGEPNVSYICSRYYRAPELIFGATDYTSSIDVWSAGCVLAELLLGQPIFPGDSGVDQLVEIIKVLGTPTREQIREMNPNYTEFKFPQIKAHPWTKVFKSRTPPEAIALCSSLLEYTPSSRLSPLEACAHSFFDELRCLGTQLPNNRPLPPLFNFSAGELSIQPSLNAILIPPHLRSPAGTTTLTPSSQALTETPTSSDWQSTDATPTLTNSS
# MLK3, sequence (Q16584 whole entry): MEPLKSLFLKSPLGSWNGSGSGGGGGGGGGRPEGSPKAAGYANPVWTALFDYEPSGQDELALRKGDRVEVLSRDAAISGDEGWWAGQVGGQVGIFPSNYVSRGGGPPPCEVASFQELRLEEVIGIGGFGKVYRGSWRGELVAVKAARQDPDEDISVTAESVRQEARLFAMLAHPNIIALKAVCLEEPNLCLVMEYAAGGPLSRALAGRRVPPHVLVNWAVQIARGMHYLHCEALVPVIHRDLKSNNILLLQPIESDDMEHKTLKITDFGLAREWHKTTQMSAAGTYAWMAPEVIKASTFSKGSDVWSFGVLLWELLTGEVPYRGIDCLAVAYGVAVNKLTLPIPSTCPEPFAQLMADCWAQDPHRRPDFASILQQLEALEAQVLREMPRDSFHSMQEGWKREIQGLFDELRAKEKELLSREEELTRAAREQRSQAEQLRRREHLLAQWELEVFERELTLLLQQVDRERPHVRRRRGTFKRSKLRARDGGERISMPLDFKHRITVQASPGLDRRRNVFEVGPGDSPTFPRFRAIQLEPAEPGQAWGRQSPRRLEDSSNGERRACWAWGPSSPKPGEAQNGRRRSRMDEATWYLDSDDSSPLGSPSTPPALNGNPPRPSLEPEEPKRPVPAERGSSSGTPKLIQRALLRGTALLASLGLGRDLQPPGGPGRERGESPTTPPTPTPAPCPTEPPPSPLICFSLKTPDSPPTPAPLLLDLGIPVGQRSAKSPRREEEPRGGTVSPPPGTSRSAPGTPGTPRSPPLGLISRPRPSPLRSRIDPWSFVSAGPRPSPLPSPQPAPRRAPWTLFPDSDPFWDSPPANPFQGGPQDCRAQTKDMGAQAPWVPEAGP
# BRAF, sequence (P15056 whole entry): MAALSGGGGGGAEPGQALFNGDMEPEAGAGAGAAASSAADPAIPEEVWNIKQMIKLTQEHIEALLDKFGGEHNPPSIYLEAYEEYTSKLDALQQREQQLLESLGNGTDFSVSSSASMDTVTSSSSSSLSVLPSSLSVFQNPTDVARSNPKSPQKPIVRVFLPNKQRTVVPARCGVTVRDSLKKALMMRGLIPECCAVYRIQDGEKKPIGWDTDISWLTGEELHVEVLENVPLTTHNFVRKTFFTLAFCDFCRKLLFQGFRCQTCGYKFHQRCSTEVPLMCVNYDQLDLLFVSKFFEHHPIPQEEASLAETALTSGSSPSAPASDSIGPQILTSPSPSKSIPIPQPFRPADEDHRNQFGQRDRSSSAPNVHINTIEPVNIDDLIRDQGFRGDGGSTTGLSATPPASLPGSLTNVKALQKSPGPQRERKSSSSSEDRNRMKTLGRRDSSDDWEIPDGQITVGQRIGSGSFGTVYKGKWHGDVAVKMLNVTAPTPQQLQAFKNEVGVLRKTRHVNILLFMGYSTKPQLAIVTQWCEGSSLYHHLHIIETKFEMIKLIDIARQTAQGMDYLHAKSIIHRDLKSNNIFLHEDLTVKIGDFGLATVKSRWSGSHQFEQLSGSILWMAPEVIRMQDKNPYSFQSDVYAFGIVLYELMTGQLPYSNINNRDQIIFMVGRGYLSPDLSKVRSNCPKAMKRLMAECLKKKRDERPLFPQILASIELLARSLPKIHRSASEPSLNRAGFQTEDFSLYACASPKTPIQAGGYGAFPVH
# CDK5, sequence (Q00535 whole entry): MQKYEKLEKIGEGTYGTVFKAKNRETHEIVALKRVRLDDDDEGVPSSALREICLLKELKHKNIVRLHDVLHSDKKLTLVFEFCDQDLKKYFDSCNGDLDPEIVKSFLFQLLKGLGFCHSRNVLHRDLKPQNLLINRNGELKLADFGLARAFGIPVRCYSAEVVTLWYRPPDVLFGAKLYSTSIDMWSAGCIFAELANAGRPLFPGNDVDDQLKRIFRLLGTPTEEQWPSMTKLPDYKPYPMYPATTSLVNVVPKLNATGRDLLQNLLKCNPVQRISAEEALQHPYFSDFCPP
# CDK5, sequence (Q15078 99-307 partner): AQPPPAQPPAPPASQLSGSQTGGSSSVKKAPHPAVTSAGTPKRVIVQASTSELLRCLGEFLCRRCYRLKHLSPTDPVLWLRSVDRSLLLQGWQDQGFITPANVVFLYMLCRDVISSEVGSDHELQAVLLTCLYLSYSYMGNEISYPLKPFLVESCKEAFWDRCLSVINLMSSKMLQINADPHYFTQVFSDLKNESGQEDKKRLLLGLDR
# DYKR1B, sequence (Q9Y463 whole entry): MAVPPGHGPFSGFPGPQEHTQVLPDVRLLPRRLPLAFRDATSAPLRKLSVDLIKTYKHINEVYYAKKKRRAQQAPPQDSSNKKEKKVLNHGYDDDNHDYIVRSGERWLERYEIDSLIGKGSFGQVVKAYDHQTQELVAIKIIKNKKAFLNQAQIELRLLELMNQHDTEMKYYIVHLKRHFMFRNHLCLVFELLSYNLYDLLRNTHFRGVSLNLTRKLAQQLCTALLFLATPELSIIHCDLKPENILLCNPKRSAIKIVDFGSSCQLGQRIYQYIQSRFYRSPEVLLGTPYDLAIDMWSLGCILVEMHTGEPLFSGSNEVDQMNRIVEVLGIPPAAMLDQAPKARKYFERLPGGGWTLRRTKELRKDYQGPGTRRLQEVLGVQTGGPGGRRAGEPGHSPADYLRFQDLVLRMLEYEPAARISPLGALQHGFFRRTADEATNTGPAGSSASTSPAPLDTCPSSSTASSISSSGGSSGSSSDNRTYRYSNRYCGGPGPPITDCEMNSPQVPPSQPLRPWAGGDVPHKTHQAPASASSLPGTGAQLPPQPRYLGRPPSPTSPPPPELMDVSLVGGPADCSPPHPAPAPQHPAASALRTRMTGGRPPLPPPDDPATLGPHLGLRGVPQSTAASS
# CK1g3, sequence (Q9Y6M4 whole entry): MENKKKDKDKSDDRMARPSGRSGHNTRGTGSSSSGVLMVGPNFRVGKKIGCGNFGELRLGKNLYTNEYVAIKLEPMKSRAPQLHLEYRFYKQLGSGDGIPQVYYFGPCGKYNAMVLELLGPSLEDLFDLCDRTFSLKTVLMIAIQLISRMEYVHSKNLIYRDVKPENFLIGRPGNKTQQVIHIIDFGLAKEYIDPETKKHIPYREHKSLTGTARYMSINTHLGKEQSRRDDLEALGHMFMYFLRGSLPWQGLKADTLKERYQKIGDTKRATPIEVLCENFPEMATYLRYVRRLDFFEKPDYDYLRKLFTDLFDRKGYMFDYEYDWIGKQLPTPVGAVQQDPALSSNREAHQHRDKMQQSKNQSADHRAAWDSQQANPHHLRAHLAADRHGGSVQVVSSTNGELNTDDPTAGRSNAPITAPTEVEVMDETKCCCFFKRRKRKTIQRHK
# MELK, sequence (Q14680 whole entry): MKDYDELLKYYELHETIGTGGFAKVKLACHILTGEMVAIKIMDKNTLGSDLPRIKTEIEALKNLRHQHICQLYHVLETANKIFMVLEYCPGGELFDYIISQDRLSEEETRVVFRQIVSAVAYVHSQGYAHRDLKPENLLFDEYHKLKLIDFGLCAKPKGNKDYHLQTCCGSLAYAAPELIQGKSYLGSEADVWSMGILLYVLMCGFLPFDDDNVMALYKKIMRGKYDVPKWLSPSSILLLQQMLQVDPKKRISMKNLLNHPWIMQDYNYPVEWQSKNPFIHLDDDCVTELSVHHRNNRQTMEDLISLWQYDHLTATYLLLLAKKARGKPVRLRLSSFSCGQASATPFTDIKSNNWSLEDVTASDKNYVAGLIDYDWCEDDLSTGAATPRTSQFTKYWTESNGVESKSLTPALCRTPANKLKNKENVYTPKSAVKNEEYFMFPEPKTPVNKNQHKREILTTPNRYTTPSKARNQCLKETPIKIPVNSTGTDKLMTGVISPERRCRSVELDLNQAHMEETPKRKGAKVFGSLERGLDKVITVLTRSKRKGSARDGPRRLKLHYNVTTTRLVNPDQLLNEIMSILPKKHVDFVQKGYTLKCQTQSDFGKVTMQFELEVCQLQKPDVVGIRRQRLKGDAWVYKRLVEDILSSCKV
Compound,pEC50 [2],number of kinases inhibited greater than 50% at 10 μM (panel of 311 kinases) [kinases],inhibition at 10 µM (BRAF) [%],inhibition at 10 µM (CDK4) [%],inhibition at 10 µM (CDK5) [%],inhibition at 10 µM (CK1g1) [%],inhibition at 10 µM (CK1g3) [%],inhibition at 10 µM (DYKR1B) [%],inhibition at 10 µM (Erk5) [%],inhibition at 10 µM (HIPK4) [%],inhibition at 10 µM (MAP2K6) [%],inhibition at 10 µM (MELK) [%],inhibition at 10 µM (MLK3) [%],inhibition at 10 µM (PKR) [%],inhibition at 10 µM (PLK1) [%],inhibition at 10 µM (RSK3) [%],Microsomal Stability [3],inhibition at 10 µM (GSK3α [5]) [%],inhibition at 10 µM (GSK3β [6]) [%],pEC50 [7],further results
"Cc1c[nH]c(-c2cnc(NCCNc3ccc(C#N)cn3)nc2-c2ccc(Cl)cc2Cl)n1 [CHIR99021, reference compound]",5.00,21,53.8,65.3,> 50,85.8,70.5,70.5,> 50,55.5,65.3,53.5,52.7,57.1,> 50,53.6,M: 4%,99.9,99.9,–,"pIC50 ([1]; read-out: Phospho-Tau ELISA in SHSY5Y Cells (IC50)): 6.36; inhibition at 10 µM (CDK2/CycA2): 79.3%; inhibition at 10 µM (CDK2/CycE1): 67.2%; inhibition at 10 µM (CDK2): > 50%; inhibition at 10 µM (CLK1): > 50%; EC50 ([4]; HEK293, read-out: TCF/LEF EC50 (μM)): 6 µM"
"COc1ccccc1[C@@H]1C2=C(CC(C)(C)CC2=O)Nc2n[nH]c(C(F)(F)F)c21 [Compound 54, (R)-4-(2-methoxyphenyl)-7,7-dimethyl-3-(trifluoromethyl)-6,7,8,9-tetrahydro-2H-pyrazolo[3,4-b]quinolin-5(4H)-one]",5.30,–,10.8,19,86.7,0.5,3.2,52.5,0.6,3.2,0.1,4.5,18.8,0.1,21.3,0.1,M: 0%,99.9,99.9,5.32,"pEC50 ([1]; read-out: p-Tau Inhibition ELISA EC50 SH-SY5Y): 5.77; % of the kinome (311 kinases) inhibited (panel of 311 kinases; 10 μM, 311 kinases): 2.6%; inhibition at 10 µM (CDK9): 20.5%; inhibition at 10 µM (LIMK1): 6.7%; PBS stability, % still present (PBS stability): more than 95%; GSH stability, % remaining (GSH stability): 99%; EC50 ([4]; HEK293, read-out: TCF/LEF EC50 (μM), HEK293 reporter cells): 5 µM"
"COc1ccccc1[C@@H]1C2=C(CC(C)(C)CC2=O)Nc2n[nH]c(C)c21 [Compound 22, 4-(2-methoxyphenyl)-3,7,7-trimethyl-6,7,8,9-tetrahydro-1H-pyrazolo[3,4-b]quinolin-5(4H)-one]",–,8,–,–,–,–,–,–,–,–,–,–,–,–,–,–,–,–,–,–,"effect on amphetamine-induced hyperactivity, ICV injection [8]: attenuate amphetamine-induced hyperactivity; neurogenesis [9]: promoted neurogenesis"
CC1(C)CC(=O)C2=C(C1)Nc1n[nH]c(C(F)(F)F)c1[C@@H]2c1c(F)cccc1F [Compound 59],–,–,–,–,–,–,–,–,–,–,–,–,–,–,–,–,–,–,–,< 4.60,pIC50 (GSK3β [10]): > 7.00; pIC50 (GSK3α [11]): 6.00 to 7.00; pIC50 (GSK3β [12]): > 7.00
[Li+] [Li^+],–,–,–,–,–,–,–,–,–,–,–,–,–,–,–,–,–,–,–,–,pIC50 (GSK3): 2.70
